Measurements reported in ChEMBL document CHEMBL4665702, “Cacalol Acetate, a Sesquiterpene from Psacalium decompositum, Exerts an Anti-inflammatory Effect through LPS/NF-KB Signaling in Raw 264.7 Macrophages” (2020).
Calls of active or inactive are those of the source. No cut-off for these calls is given here.

Key:
Mus musculus [1] = assay: Anti-inflammatory activity in TPA-induced CD-1 mouse ear edema model assessed as inhibition of ear edema at 1 mg relative to control; type: functional
Mus musculus [2] = assay: Anti-inflammatory activity in TPA-induced CD-1 mouse ear edema model assessed as ear weight at 1 mg; type: functional
[3] = target: Transcription factor p65 (Mus musculus) (UniProt Q04207); assay: Inhibition of p65 phosphorylation at Ser536 residues in LPS-induced mouse RAW 264.7 cells at 10 uM preincubated for 1 hr followed by LPS administration measured after 25 mins by Western blot analysis relative to control; conditions: RAW264.7, dose 100.0 µM, time 85.0 min
Target sequence in this assay (Q04207 whole entry, looked up): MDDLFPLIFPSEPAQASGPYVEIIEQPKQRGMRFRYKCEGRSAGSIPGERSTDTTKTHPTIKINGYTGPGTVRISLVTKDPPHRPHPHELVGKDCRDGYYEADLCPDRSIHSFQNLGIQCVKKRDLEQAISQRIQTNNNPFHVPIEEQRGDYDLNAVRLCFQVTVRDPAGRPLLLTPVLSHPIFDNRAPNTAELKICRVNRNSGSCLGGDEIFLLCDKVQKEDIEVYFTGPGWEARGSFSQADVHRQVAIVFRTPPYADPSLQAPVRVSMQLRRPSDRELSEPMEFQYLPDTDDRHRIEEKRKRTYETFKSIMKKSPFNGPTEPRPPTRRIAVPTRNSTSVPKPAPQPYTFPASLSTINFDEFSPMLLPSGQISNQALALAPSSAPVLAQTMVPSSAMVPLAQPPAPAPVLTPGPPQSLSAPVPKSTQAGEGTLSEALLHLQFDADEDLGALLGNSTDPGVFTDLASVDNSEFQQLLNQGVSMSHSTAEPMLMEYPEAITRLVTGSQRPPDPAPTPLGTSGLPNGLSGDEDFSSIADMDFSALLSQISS

[4] = target: T1, Inhibitor of nuclear factor kappa-B kinase subunit beta (Mus musculus) (UniProt O88351); assay: Inhibition of IKK-beta phosphorylation at Ser176/177 residues in LPS-induced mouse RAW 264.7 cells at 10 uM preincubated for 1 hr followed by LPS administration measured after 25 mins by Western blot analysis relative to control; conditions: RAW264.7, time 85.0 min
T1 sequence (whole entry): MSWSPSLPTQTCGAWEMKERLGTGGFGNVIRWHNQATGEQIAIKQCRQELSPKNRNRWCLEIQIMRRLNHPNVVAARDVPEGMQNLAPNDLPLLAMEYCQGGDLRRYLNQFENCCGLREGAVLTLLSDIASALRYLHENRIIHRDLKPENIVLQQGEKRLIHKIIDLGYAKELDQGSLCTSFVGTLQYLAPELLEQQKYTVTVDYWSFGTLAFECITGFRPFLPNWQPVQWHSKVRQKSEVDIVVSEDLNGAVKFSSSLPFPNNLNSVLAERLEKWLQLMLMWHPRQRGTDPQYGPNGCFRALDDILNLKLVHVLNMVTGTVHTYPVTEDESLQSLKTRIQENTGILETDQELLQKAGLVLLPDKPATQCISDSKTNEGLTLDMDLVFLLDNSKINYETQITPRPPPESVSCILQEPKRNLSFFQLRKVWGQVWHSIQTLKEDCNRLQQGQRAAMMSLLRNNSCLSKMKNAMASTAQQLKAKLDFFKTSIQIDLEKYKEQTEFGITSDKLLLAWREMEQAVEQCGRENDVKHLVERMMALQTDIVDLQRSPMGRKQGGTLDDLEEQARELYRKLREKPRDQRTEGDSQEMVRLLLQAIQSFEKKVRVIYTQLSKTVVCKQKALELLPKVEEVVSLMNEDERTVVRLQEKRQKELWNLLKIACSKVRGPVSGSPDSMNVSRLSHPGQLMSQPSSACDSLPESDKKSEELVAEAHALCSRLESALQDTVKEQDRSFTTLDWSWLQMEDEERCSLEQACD

RAW264.7 [5] = assay: Anti-inflammatory activity in mouse RAW264.7 cells assessed as inhibition of LPS-induced TNF-alpha mRNA expression at 10 uM preincubated for 1 hr followed by LPS administration measured after 3 hrs by RT-PCR analysis; type: functional, cell-based; conditions: time 4.0 hrs
RAW264.7 [6] = assay: Anti-inflammatory activity in mouse RAW264.7 cells assessed as inhibition of LPS-induced IL-6 production at 10 uM preincubated for 1 hr followed by LPS administration measured after 3 hrs by ELISA; type: functional, cell-based; conditions: time 4.0 hrs
RAW264.7 [7] = assay: Anti-inflammatory activity in mouse RAW264.7 cells assessed as inhibition of LPS-induced IL-1beta mRNA expression at 10 uM preincubated for 1 hr followed by LPS administration measured after 3 hrs by RT-PCR analysis; type: functional, cell-based; conditions: time 4.0 hrs
RAW264.7 [8] = assay: Anti-inflammatory activity in mouse RAW264.7 cells assessed as inhibition of LPS-induced TNF-alpha production at 10 uM preincubated for 1 hr followed by LPS administration measured after 3 hrs by ELISA; type: functional, cell-based; conditions: time 4.0 hrs
RAW264.7 [9] = assay: Anti-inflammatory activity in mouse RAW264.7 cells assessed as inhibition of LPS-induced IL-6 mRNA expression at 10 uM preincubated for 1 hr followed by LPS administration measured after 3 hrs by RT-PCR analysis; type: functional, cell-based; conditions: time 4.0 hrs
RAW264.7 [10] = assay: Anti-inflammatory activity in mouse RAW264.7 cells assessed as inhibition of LPS-induced IL-1beta production at 10 uM preincubated for 1 hr followed by LPS administration measured after 3 hrs by ELISA; type: functional, cell-based; conditions: time 4.0 hrs
[11] = target: T1, Inhibitor of nuclear factor kappa-B kinase subunit beta (Mus musculus); assay: Inhibition of IKK-beta phosphorylation at Ser176/177 residues in LPS-induced mouse RAW 264.7 cells at 50 to 100 uM preincubated for 1 hr followed by LPS administration measured after 25 mins by Western blot analysis; conditions: RAW264.7, dose microM 50-100, time 85.0 min
RAW264.7 [12] = assay: Inhibition of NFkappaB in mouse RAW 264.7 cells assessed as reduction in LPS-induced transcriptional activation at 50 uM preincubated for 1 hr followed by LPS administration measured after 25 mins by EMSA relative to control; type: cell-based; conditions: time 85.0 min
RAW264.7 [13] = assay: Inhibition of NFkappaB in mouse RAW 264.7 cells assessed as reduction in LPS-induced transcriptional activation at 100 uM preincubated for 1 hr followed by LPS administration measured after 25 mins by EMSA relative to control; type: cell-based; conditions: time 85.0 min
RAW264.7 [14] = assay: Anti-inflammatory activity in mouse RAW264.7 cells assessed as inhibition of LPS-induced IL-6 production at 50 to 100 uM preincubated for 1 hr followed by LPS administration measured after 3 hrs by ELISA; type: functional, cell-based; conditions: dose microM 50-100, time 4.0 hrs
RAW264.7 [15] = assay: Anti-inflammatory activity in mouse RAW264.7 cells assessed as inhibition of LPS-induced TNF-alpha mRNA expression at 50 to 100 uM preincubated for 1 hr followed by LPS administration measured after 3 hrs by RT-PCR analysis; type: functional, cell-based; conditions: dose microM 50-100, time 4.0 hrs
RAW264.7 [16] = assay: Anti-inflammatory activity in mouse RAW264.7 cells assessed as inhibition of LPS-induced COX2 mRNA expression at 50 to 100 uM preincubated for 90 mins followed by LPS administration measured after 3 hrs by RT-qPCR analysis; type: functional, cell-based; conditions: dose microM 50-100, time 270.0 min
RAW264.7 [17] = assay: Anti-inflammatory activity in mouse RAW264.7 cells assessed as inhibition of LPS-induced IL-1beta production at 50 to 100 uM preincubated for 1 hr followed by LPS administration measured after 3 hrs by ELISA; type: functional, cell-based; conditions: dose microM 50-100, time 4.0 hrs
RAW264.7 [18] = assay: Anti-inflammatory activity in mouse RAW264.7 cells assessed as inhibition of LPS-induced COX2 level at 50 to 100 uM preincubated for 90 mins followed by LPS administration measured after 3 hrs by fluorimetric analysis relative to control; type: functional; conditions: dose microM 50-100; time 270 min; 4.5 h
[19] = target: Transcription factor p65 (Mus musculus) (UniProt Q04207); assay: Inhibition of p65 phosphorylation at Ser536 residues in LPS-induced mouse RAW 264.7 cells at 100 uM preincubated for 1 hr followed by LPS administration measured after 25 mins by Western blot analysis relative to control; conditions: RAW264.7, time 85.0 min
Target sequence in this assay (Q04207 whole entry): as the sequence (Q04207 whole entry, looked up) above

RAW264.7 [20] = assay: Anti-inflammatory activity in mouse RAW264.7 cells assessed as inhibition of LPS-induced IL-1beta mRNA expression at 50 to 100 uM preincubated for 1 hr followed by LPS administration measured after 3 hrs by RT-PCR analysis; type: functional, cell-based; conditions: dose microM 50-100, time 4.0 hrs
RAW264.7 [21] = assay: Anti-inflammatory activity in mouse RAW264.7 cells assessed as inhibition of LPS-induced IL-6 mRNA expression at 50 to 100 uM preincubated for 1 hr followed by LPS administration measured after 3 hrs by RT-PCR analysis; type: functional, cell-based; conditions: dose microM 50-100, time 4.0 hrs
RAW264.7 [22] = assay: Anti-inflammatory activity in mouse RAW264.7 cells assessed as inhibition of LPS-induced COX2 protein level at 50 to 100 uM preincubated for 90 mins followed by LPS administration measured after 3 hrs by RT-qPCR analysis relative to control; type: functional; conditions: dose microM 50-100; time 270 min; 4.5 h
RAW264.7 [23] = assay: Anti-inflammatory activity in mouse RAW264.7 cells assessed as inhibition of LPS-induced TNF-alpha production at 50 to 100 uM preincubated for 1 hr followed by LPS administration measured after 3 hrs by ELISA; type: functional, cell-based; conditions: dose microM 50-100, time 4.0 hrs

## Cc1coc2c(O)c3c(c(C)c12)[C@@H](C)CCC3 [CACALOL]
Mus musculus [1]
  inhibition (INH): 48.5%
Mus musculus [2]
  Activity: 8.55 mg

## CC(C)(C)c1ccc(S(=O)(=O)/C=C/C#N)cc1
[3]
  fold change (FC): 0.1
[4]
  fold change (FC): 1.5
RAW264.7 [5]
  inhibition: Active
RAW264.7 [6]
  inhibition: Active
RAW264.7 [7]
  inhibition: Active
RAW264.7 [8]
  inhibition: Active
RAW264.7 [9]
  inhibition: Active
RAW264.7 [10]
  inhibition: Active

## CC(=O)Oc1c2c(c(C)c3c(C)coc13)[C@@H](C)CCC2
[11]
  inhibition: inactive
RAW264.7 [12]
  fold change (FC): 1.7
Mus musculus [1]
  inhibition (INH): 70.3%
RAW264.7 [13]
  fold change (FC): 2.1
RAW264.7 [14]
  inhibition: Active
RAW264.7 [15]
  inhibition: Active
RAW264.7 [16]
  inhibition: Active
RAW264.7 [17]
  inhibition: Active
RAW264.7 [18]
  fold change (FC): 2.5
[19]
  fold change (FC): 0.2
RAW264.7 [20]
  inhibition: Active
Mus musculus [2]
  Activity: 6.56 mg
RAW264.7 [21]
  inhibition: Active
RAW264.7 [22]
  fold change (FC): 2
RAW264.7 [23]
  inhibition: Active

## COc1ccc2c(c1)c(CC(=O)O)c(C)n2C(=O)c1ccc(Cl)cc1 [INDOMETHACIN]
Mus musculus [1]
  inhibition (INH): 78.6%
Mus musculus [2]
  Activity: 4.05 mg
